Like-named read-outs stand apart in the source and are kept apart here.
Tests used:
[1] = Stability tests of stabilized Idarubicin HCl, 1% w/v aqueous solution with NH4OAc or NH4OAc + AcOH; assay type: physicochemical
Experimental: Starting product was idarubicin hydrochloride, 1% w/v aqueous solution, the analysis of which is shown in the data reported at t=0. 3% mol of NH4OAc with respect to idarubicin hydrochloride was added to the solution at t=0 and the solution was incubated at 4° C. for the indicated time.
Starting product was idarubicin hydrochloride, 1% w/v aqueous solution, the analysis of which is shown in the data reported at t=0. 3% mol of NH4OAc with respect to idarubicin hydrochloride was added to the solution at t=0 and the solution was incubated at 20° C. for the indicated time.
(§1) Starting product was idarubicin hydrochloride, 1% w/v aqueous solution, the analysis of which is shown in the data reported at t=0. 1% mol of NH4OAc with respect to idarubicin hydrochloride was added to the solution at t=0 and the solution was incubated at 4° C. for the indicated time.
(§2) Starting product was idarubicin hydrochloride, 1% w/v aqueous solution, the analysis of which is shown in the data reported at t=0. 1% mol of NH4OAc with respect to idarubicin hydrochloride was added to the solution at t=0 and the solution was incubated at 20° C. for the indicated time.
as §1, with “t=0. 0.5%” for “t=0. 1%”, “NH4OAc and 0.5% mol of AcOH” for “NH4OAc”, “hydrochloride were” for “hydrochloride was”
as §2, with “t=0. 0.5%” for “t=0. 1%”, “NH4OAc and 0.5% mol of AcOH” for “NH4OAc”, “hydrochloride were” for “hydrochloride was”, “indicated time as shown in table 30.” for “indicated time.”
as §1, with “t=0. 1.5%” for “t=0. 1%”, “NH4OAc and 1.5% mol of AcOH” for “NH4OAc”, “hydrochloride were” for “hydrochloride was”
as §2, with “t=0. 1.5%” for “t=0. 1%”, “NH4OAc and 1.5% mol of AcOH” for “NH4OAc”, “hydrochloride were” for “hydrochloride was”

[2] = Preparation of stable lyophilized anthracycline glycoside hydrochlorides: aglycone and dimer in the lyophilized product; assay type: physicochemical; conditions: frozen and lyophilized
Experimental: (§3) Idarubicin hydrochloride (500 mg) was dissolved in water (50 ml) and acetic acid and ammonium acetate (both 1.5% molar amount with respect to the molar amount of idarubicin hydrochloride) were added. The solution was frozen and lyophilized.
as §3, with “Charcoal was then added (100 g) and the solution was stirred for two hours. After that, the suspension was filtered through 0.4 micron membrane and then the” for “The”
Doxorubicin hydrochloride (500 mg) was dissolved in water (20 ml) and the pH corrected to 3.5 with acetic acid at room temperature. The solution was then warmed to 60° C. for 2 hours and then ammonium acetate (1.5% molar amount with respect to the molar amount of doxorubicin hydrochloride) was added. Then the solution was quickly frozen and lyophilized.
(§4) Epirubicin hydrochloride (1550 mg) was dissolved in water (100 ml) and the pH corrected to 3.2-3.8 with hydrochloric acid at room temperature. The solution was then warmed to 60° C.-65° C. for 1 hours and then the solution was cooled to 50-60° C. At the same time, the pH was corrected to 4.5-5.0 with sodium hydroxide. Then the solution was quickly frozen and lyophilized.
Idarubicin hydrochloride (5.0 g) was dissolved in water (500 ml). Then 58 microlitres of AMBERLITE® IRA-67 (1.6M) acetate (meaning 1.0% molar amount with respect to the molar amount of idarubicin hydrochloride) and 4.5 mg of acetic acid (meaning 0.8% molar amount with respect to the molar amount of idarubicin hydrochloride) were added. The suspension was slurried for two hours, then filtered, frozen and lyophilized.
Doxorubicin hydrochloride (5.0 g) was dissolved in water (200 ml) and the pH corrected to 4.6-4.8 with IN hydrochloric acid at room temperature. Then 80 microlitres of AMBERLITE® IRA-67 (1.6M) acetate (meaning 1.5% molar amount with respect to the molar amount of doxorubicin hydrochloride) was added. The solution was then filtered, frozen and lyophilized.
as §4, with “was” for “was then”, “hour” for “hours”, “AMBERLITE® IRA-67 free base.” for “sodium hydroxide.”, “filtered, frozen,” for “frozen”

[3] = cited from earlier work
[4] = NH4OAc 0.5% mol + AcOH 0.5% mol, pH 5.08, 4° C., 25 hr
[5] = NH4OAc 0.5% mol + AcOH 0.5% mol, pH 5.08, 4° C., 95 hr
[6] = NH4OAc 0.5% mol + AcOH 0.5% mol, pH 5.08, 20° C., 19 hr
[7] = NH4OAc 0.5% mol + AcOH 0.5% mol, pH 5.08, 20° C., 90 hr
[8] = NH4OAc 1% mol, pH 5.92, 4° C., 24 hr
[9] = NH4OAc 1% mol, pH 5.92, 20° C., 18 hr
[10] = NH4OAc 1% mol, pH 5.92, 20° C., 313 hr
[11] = NH4OAc 1.5% mol + AcOH 1.5% mol, pH 4.94, 4° C., 314 hr
[12] = NH4OAc 1.5% mol + AcOH 1.5% mol, pH 4.94, 20° C., 21 hr
[13] = NH4OAc 1.5% mol + AcOH 1.5% mol, pH 4.94, 20° C., 68 hr
[14] = NH4OAc 1.5% mol + AcOH 1.5% mol, pH 4.94, 20° C., 139 hr
[15] = NH4OAc 1.5% mol + AcOH 1.5% mol, pH 4.94, 20° C., 315 hr
[16] = NH4OAc 3% mol, pH 5.94, 4° C., 30 hr
[17] = NH4OAc 3% mol, pH 5.94, 4° C., 131 hr
[18] = NH4OAc 3% mol, pH 5.94, 20° C., 26 hr
[19] = NH4OAc 3% mol, pH 5.94, 20° C., 130 hr

**Q.** Which results are given for CC(=O)[C@]1(O)Cc2c(O)c3c(c(O)c2[C@@H](O[C@H]2C[C@@H](N)[C@H](O)C(C)O2)C1)C(=O)c1ccccc1C3=O.Cl (stereo partly drawn) [Idarubicin HCl, Idarubicin hydrochloride]?
**A.** aglycone [1, 4]: 0.59%; bis-anhydro [1, 4]: 0.04%; aglycone [1, 5]: 0.59%; bis-anhydro [1, 5]: 0.05%; aglycone ([1]; NH4OAc 0.5% mol + AcOH 0.5% mol, pH 5.08, 4° C., t = 0): 0.59%; aglycone [1, 6]: 0.59%; bis-anhydro [1, 6]: 0.07%; aglycone [1, 7]: 0.59%; bis-anhydro [1, 7]: 0.18%; aglycone ([1]; NH4OAc 0.5% mol + AcOH 0.5% mol, pH 5.08, 20° C., t = 0): 0.59%; % aglycone [1, 8]: 0.59%; % bis-anhydro [1, 8]: 0.05%; % aglycone ([1]; NH4OAc 1% mol, pH 5.92, 4° C., t = 0): 0.59%; % aglycone [1, 9]: 0.59%; % bis-anhydro [1, 9]: 0.20%; % aglycone [1, 10]: 0.60%; % bis-anhydro [1, 10]: 4.46%; % aglycone ([1]; NH4OAc 1% mol, pH 5.92, 20° C., t = 0): 0.59%; aglycone ([1]; NH4OAc 1.5% mol + AcOH 1.5% mol, pH 4.94, 4° C., 26 hr): 0.59%; aglycone ([1]; NH4OAc 1.5% mol + AcOH 1.5% mol, pH 4.94, 4° C., 97 hr): 0.59%; aglycone [1, 11]: 0.59%; bis-anhydro [1, 11]: 0.06%; aglycone ([1]; NH4OAc 1.5% mol + AcOH 1.5% mol, pH 4.94, 4° C., t = 0): 0.59%; aglycone [1, 12]: 0.59%; bis-anhydro [1, 12]: 0.06%; aglycone [1, 13]: 0.59%; bis-anhydro [1, 13]: 0.16%; aglycone [1, 14]: 0.59%; bis-anhydro [1, 14]: 0.75%; aglycone [1, 15]: 0.6%; bis-anhydro [1, 15]: 6.21%; aglycone ([1]; NH4OAc 1.5% mol + AcOH 1.5% mol, pH 4.94, 20° C., t = 0): 0.59%; % aglycone [1, 16]: 0.59%; % bis-anhydro [1, 16]: 0.09%; % aglycone [1, 17]: 0.59%; % bis-anhydro [1, 17]: 0.25%; % aglycone ([1]; NH4OAc 3% mol, pH 5.94, 4° C., t = 0): 0.59%; % aglycone [1, 18]: 0.59%; % bis-anhydro [1, 18]: 0.50%; % aglycone [1, 19]: 0.59%; % bis-anhydro [1, 19]: 1.39%; % aglycone ([1]; NH4OAc 3% mol, pH 5.94, 20° C., t = 0): 0.59%; aglycone contained in lyophilized product ([2]; Example 38: acetic acid and ammonium acetate, both 1.5% molar): 0.12%; aglycone contained in lyophilized product ([2]; Example 39: acetic acid and ammonium acetate, both 1.5% molar, charcoal, filtered): 0.02%; aglycone contained in lyophilized product ([2]; Example 42: AMBERLITE IRA-67 acetate 1.0% molar and acetic acid 0.8% molar, slurried two hours, filtered): 0.09%; solubility ([3]; in acetone, chloroform, and methylene chloride): practically insoluble; solubility ([3]; in water, methanol, and other polar solvents like dimethylformamide): soluble; solubility ([3]; in water): not very soluble

Reference: patent US20070004653A1, “Stable lyophilized anthracycline glycosides” (priority 2005, published 2007)
